{
  "source": "patent US20060045905A1",
  "about": "“Composition for repressing transformation growth factor beta” (Taiyokagaku Co., Ltd., priority 2004, published 2006)",
  "tested_on": "mice",
  "type": "in vivo",
  "details": "oral administration of theanine by 5 g/kg",
  "text": "Theanine used in the invention has a high security. […] Furthermore, theanine is known as a principal component of deliciousness of tea and used as a food additive for use as gustatory. An amount of theanine to be added is not limited under the Food Sanitation Law. Moreover, differing from conventional medical substances, theanine has no adverse side effect. Consequently, the composition of the invention can be used as a safe and effective composition for repressing TGF-β.",
  "data": [
    {"smiles": "CCNC(=O)CC[C@H](N)C(=O)O", "note": "[theanine, L-theanine]", "values": [
      {"measurement": "mortality in acute toxicity test", "value": "no mice died"}
    ]}
  ]
}
